Experimental data taken from patent US6727241B2, “Anti-inflammatory compositions and methods of use” (Chemocentryx, priority 2002, dated 2004).
Read-outs that look alike come from different tables or passages of the source.

Tests used:
[1] = biological target: T1, CCR1 (Homo sapiens, UniProt P32246); assay: Inhibition of CCR1 ligand binding (125I labeled MIP-1α binding to CCR1 expressing cells); parameters: expressed in transfected cells; host or cells: NSO murine myeloma (CCR1-NSO) or HEK 293 (CCR1-293)
T1 sequence (P32246 1-355): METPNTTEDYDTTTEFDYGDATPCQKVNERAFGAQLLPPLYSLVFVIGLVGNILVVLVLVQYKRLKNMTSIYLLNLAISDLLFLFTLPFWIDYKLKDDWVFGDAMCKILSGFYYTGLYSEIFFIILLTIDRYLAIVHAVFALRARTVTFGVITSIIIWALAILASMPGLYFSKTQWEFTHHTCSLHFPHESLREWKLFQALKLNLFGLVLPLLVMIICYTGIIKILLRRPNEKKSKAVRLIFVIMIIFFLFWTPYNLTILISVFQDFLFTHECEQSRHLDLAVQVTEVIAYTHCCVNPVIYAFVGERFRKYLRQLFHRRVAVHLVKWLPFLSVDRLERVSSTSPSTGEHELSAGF
Method: CCR1 expressing cells were centrifuged and resuspended in assay buffer (20 mM HEPES pH 7.1, 140 mM NaCl, 1 mM CaCl2, 5 mM MgCl2, and with 0.2% bovine serum albumin) to a concentration of 5.6×10^6 cells/ml (CCR1-NSO) or 2.2×10^6 cells/ml ([…].). Screening assays were set up as follows. First, 0.09 ml of cells (5×10^5 CCR1-NSO cells/well or 2×10^5 CCR1-293 cells/well) was added to the assay plates containing the compounds, giving a final concentration of ˜2-10 μM each compound. Then 0.09 ml of ^125I labeled MIP-1α (obtained from Amersham; Piscataway, N.J.) diluted in assay buffer to a final concentration of ˜50 pM, yielding ˜30,000 cpm per well, was added, the plates sealed and incubated for approximately 3 hours at 4° C. on a shaker platform. Reactions were aspirated onto GF/B glass filters pre-soaked in 0.3% polyethyleneimmine (PEI) solution, on a vacuum cell harvester (Packard Instruments; Meriden, Conn.). Scintillation fluid (50 μl; Microscint 20, Packard Instruments) was added to each well, the plates were sealed and radioactivity measured in a Top Count scintillation counter (Packard Instruments). Control wells containing either diluent only (for total counts) or excess MIP-1α or MIP-1β ([…], for non-specific binding) were used to calculate the percent of total inhibition for each set of compounds. After testing the CLIP plates, wells with 40% or greater inhibition were confirmed. If confirmed, the individual compounds of the CLIP's were tested for reactivity (deconvolution step). IC50 values are those concentrations required to reduce the binding of labeled MIP-1α to the receptor by 50%.
To identify small organic molecules that prevent the receptor CCR1 from binding ligand, an assay was employed that detected radioactive ligand (MIP-1α) binding to cells expressing exogenous CCR1 on the cell surface.
A NSO murine myeloma cell line (CCR1-NSO) and a human embryonic kidney (HEK) carcinoma cell line (CCR1-293) were constructed that constitutively expressed human CCR1 on the cell surface; these cells lack other chemokine receptors that bind MIP-1α. Equal numbers of cells were added to each well in the CLIP plate, where each pool contained 10 candidate organic compounds. The cells were then incubated with radio labeled MIP-1α. Unbound ligand was removed by washing the cells, and bound ligand was determined by quantifying radioactive counts. Cells that were incubated without any organic compound gave total counts; non-specific binding was determined by incubating the cells with unlabeled ligand and labeled ligand. Percent inhibition was determined by the equation:
% inhibition=1−[(sample cpm)−(nonspecific cpm)]/[(total cpm)−(nonspecific cpm)]×100
To ascertain a candidate compound's affinity for CCR1 as well as confirm its ability to inhibit ligand binding, inhibitory activity was titered over 1×10^−8 to 1×10^−4 M range of compound concentration. The assay was essentially the same as for the CLIP screens, except the amount of compound was varied; cell number and ligand concentration were held constant. Only those compounds that were commercially available at the time of the experiments were titered. Of the 22 candidates identified, the following 16 were subjected to dose response experiments: CCX-3343, CCX-1057, CCX-1307, CCX-1513, CCX-238, CCX-3345, CCX-3493, CCX-4425, CCX-4462, CCX-4682, CCX-469, CCX-5062, CCX-5119, CCX-541, CCX-6019 and CCX-6530.

[2] = biological target: T1, CCR1; assay: Calcium mobilization in response to MIP-1α (INDO-1); type: cell-based; parameters: expressed in transfected cells; host or cells: HEK 293 (CCR1-293), pIRESpuro vector; key to MIP-1α: calcium pulse: +: pulse observed; −: no pulse observed; n.s.: non-specific signal; settings: for MIP-1α: calcium pulse: CCR1-293 or THP-1 cells loaded with INDO-1, compound 10 to 20 μM added before MIP-1α; for Comments (inhibition of calcium signaling) / Inhibition of CCR1 calcium signaling, result in words: Table 2; for Inhibition of CCR1 calcium signaling, result in words: MIP-1α versus bradykinin
Method: (§1) To detect the release of intracellular stores of calcium, cultured cells were incubated with 3 μM of INDO-1AM dye (Molecular Probes; Eugene, Oreg.) in cell media for 45 minutes at room temperature and washed with phosphate buffered saline (PBS). After INDO-1AM loading, the cells were resuspended in flux buffer (Hank's balanced salt solution (HBSS) and 1% FBS). Calcium mobilization was measured using a Photon Technology International spectrophotometer (Photon Technology International; New Jersey) with excitation at 350 nm and dual simultaneous recording of fluorescence emission at 400 nm and 490 nm. Relative intracellular calcium levels were expressed as the 400 nm/490 nm emission ratio. Experiments were performed at 37° C. with constant mixing in cuvettes each containing 10^6 cells in 2 ml of flux buffer. The chemokine ligands may be used over a range from 1 to 100 nM. The emission ratio was plotted over time (typically 2-3 minutes). Candidate ligand blocking compounds (10 to 20 μM) were added at 10 seconds, followed by chemokines at 60 seconds (MIP-1α; R&D Systems; Minneapolis, Minn.) and control […] (bradykinin; ICN Pharmaceutical, Costa Mesa, Calif.) at 150 seconds. In some experiments, candidate blocking compounds and cells were added simultaneously, and MIP-1α was added 40 seconds later.
CCR1 is a seven transmembrane, G-protein linked receptor. A hallmark of signaling cascades induced by the ligation of such receptors is the pulse-like release of calcium ions from intracellular stores. Calcium mobilization assays were performed to determine if the candidate MIP-1α inhibitory compounds were able to also block CCR1 signaling. To be useful, candidate compounds able to inhibit specifically ligand binding and signaling were desired.
(§2) Calcium ion release in response to MIP-1α binding was measured using the cell permeable INDO-1/AM indicator, which fluoresces in the presence of free, but not chelated, calcium ions. CCR1-293 or THP-1 cells were loaded with INDO-1 and assayed for calcium release in response to MIP-1α addition. To control for specificity, a second, non-CCR1 binding […], bradykinin, was added, which also signals via a seven transmembrane receptor. Without compound, a pulse of fluorescent signal will be seen upon MIP-1α addition.

[3] = tested on: bradykinin-induced calcium signaling; assay: Calcium mobilization in response to bradykinin (specificity control); type: cell-based, human; parameters: key: +: pulse observed; −: no pulse observed; n.s.: non-specific signal; settings: CCR1-293 or THP-1 cells loaded with INDO-1; compound 10 to 20 μM; bradykinin added after MIP-1α
Method: as §1, §2

[4] = CCR1-293 cells, compound titered 1×10^−8 to 1×10^−4 M, * = partially blocked MIP-1α binding at the highest tested concentration, read-out: IC50 (Inhibition Constant; μM), CCR1-MIP-1α binding
[5] = compound titered 1×10^−8 to 1×10^−4 M, cells not given
[6] = dose response, cells not given, read-out: CCR1 affinity (MIP-1α binding)
[7] = CCR1-NSO cells, compound titered 1×10^−8 to 1×10^−4 M, read-out: IC50 (Inhibition Constant; μM), CCR1-MIP-1α binding

O=C(c1ccc(Cl)c(Cl)c1)C12CN3CN(CN(C3)C1)C2 [CCX-1307]
IC50 [1, 4]: 2 µM

O=C(C[n+]1ccc(-c2ccccc2)cc1)Nc1ccc([N+](=O)[O-])cc1 [CCX-1057]
IC50 [1, 4]: 2 µM

c1ccc(C2C3=C(Nc4nc5ccccc5n42)c2ccccc2CCC3)cc1 (stereo not shown) [CCX-1080]
IC50 [1, 4]: 2 µM

CC(=O)C1=C(O)C(=O)N(c2ccc(Br)cc2)C1c1ccc(F)cc1 (stereo not shown) [CCX-5062]
Dose-response inhibition of MIP-1α binding, result in words [1, 5]: failed to completely inhibit MIP-1α binding at the highest tested concentration | IC50 [1, 6]: ~2 µM

COC(=O)c1cc(C#N)c(Sc2c([N+](=O)[O-])cc(C(F)(F)F)cc2[N+](=O)[O-])nc1C(OC)OC [CCX-5119]
IC50 ([1]; read-out: IC50 (Inhibition Constant; μM), CCR1-MIP-1α binding, CCR1-293 cells, compound titered 1×10^−8 to 1×10^−4 M, * = partially blocked MIP-1α binding at the highest tested concentration): 45 µM

O=C(NN(Cc1c(F)cccc1Cl)c1ccccc1)C(Cl)(Cl)Cl [CCX-6019]
IC50 [1, 7]: 25 µM

O=C(O)c1ccc2c(c1)C1C=CCC1C(C(=O)O)N2 (stereo not shown) [CCX-1959]
IC50 [1, 7]: 0.36 µM

CC[n+]1c(/C=C/C=C2/N(C)c3ccccc3C2(C)C)ccc2c1c1cc(Br)ccc1n2C [CCX-2324]
IC50 [1, 4]: 2 µM

CC1CCC(C(C)C)C(OCC(O)CN2CCN(c3ccc(F)cc3)CC2)C1 (stereo not shown) [CCX-3343]
Dose-response inhibition of MIP-1α binding, result in words [1, 5]: failed to completely inhibit MIP-1α binding at the highest tested concentration | IC50 [1, 6]: ~2 µM

CC1CCC(C(C)C)C(OCC(O)CN2CCC(Cc3ccccc3)CC2)C1 (stereo not shown) [CCX-3345]
Dose-response inhibition of MIP-1α binding, result in words [1, 5]: failed to completely inhibit MIP-1α binding at the highest tested concentration | IC50 [1, 6]: ~2 µM

O=C1NCCCCC1N(Cc1ccccc1F)C(=O)C(c1ccccc1)c1ccccc1 (stereo not shown) [CCX-469]
MIP-1α: calcium pulse [2]: − | Comments (inhibition of calcium signaling) [2]: Clear and specific | Inhibition of CCR1 calcium signaling, result in words [2]: able to significantly and specifically inhibit signaling from CCR1 | IC50 [1, 4]: 2 µM | IC50 [1, 7]: 0.6 µM | Bradykinin: calcium pulse [3]: +

S=c1[nH]nc(-c2ccc(Cl)cc2)n1-c1cccnc1 [CCX-3493]
MIP-1α: calcium pulse [2]: + | Comments (inhibition of calcium signaling) [2]: No inhibition. | Inhibition of CCR1 calcium signaling, result in words [2]: did not affect signaling, whether MIP-1α or bradykinin induced | IC50 [1, 4]: 18 µM | IC50 [1, 7]: 1.7 µM | Bradykinin: calcium pulse [3]: +

Cc1ccc(C(/C(Cl)=C(\Cl)C(=O)O)c2ccc(C)cc2C)c(C)c1 [CCX-541]
MIP-1α: calcium pulse [2]: n.s. | Comments (inhibition of calcium signaling) [2]: Calcium levels increased non- | Inhibition of CCR1 calcium signaling, result in words [2]: non-specific effects on calcium levels | IC50 [1, 7]: 0.4 µM | Bradykinin: calcium pulse [3]: n.s.

O=C(O)C1=C(Sc2ccc(Cl)cc2)CSC1 [CCX-4682]
IC50 [1, 7]: 44 µM
